According to PubChem BioAssay (NCI):
“And” between values parts separate entries of the source, which are not always exact repeats. Identical values can stand only once.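 Interpolation was linear, between the two tested concentrations surrounding the appropriate level; five concentrations were tested over 48 hours in 96-well plates. Abbreviation: GI50, concentration required for 50% inhibition of growth. Definition used: TGI = concentration required for complete inhibition of growth.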

What was measured:
Experiment in all cases: NCI-60 cell line screen, 48 h
[1] = test system: CAKI-1 renal
[2] = test system: SW-620 colon
[3] = test system: SR leukemia
[4] = test system: OVCAR-8 ovarian
[5] = test system: M14 melanoma
[6] = test system: ACHN renal
[7] = test system: HOP-92 NSCLC
[8] = test system: T-47D breast
[9] = test system: NCI/ADR-RES ovarian
[10] = test system: LOX IMVI melanoma
[11] = test system: SF-539 CNS
[12] = test system: OVCAR-5 ovarian
[13] = test system: HCT-15 colon
[14] = test system: HL-60(TB) leukemia
[15] = test system: SF-268 CNS
[16] = test system: HCC-2998 colon
[17] = test system: NCI-H226 lung
[18] = test system: 786-0 renal
[19] = test system: SNB-19 CNS
[20] = test system: HOP-62 NSCLC
[21] = test system: MOLT-4 leukemia
[22] = test system: SK-MEL-5 melanoma
[23] = test system: UACC-62 melanoma
[24] = test system: OVCAR-4 ovarian
[25] = test system: EKVX NSCLC
[26] = test system: K-562 leukemia
[27] = test system: HCT-116 colon
[28] = test system: HT29 colon
[29] = test system: SF-295 CNS
[30] = test system: BT-549 breast
[31] = test system: RPMI-8226 leukemia
[32] = test system: MCF7 breast
[33] = test system: NCI-H460 lung
[34] = test system: SK-MEL-28 melanoma
[35] = test system: UO-31 renal
[36] = test system: NCI-H23 lung
[37] = test system: PC-3 prostate
[38] = test system: A549 NSCLC
[39] = test system: OVCAR-3 ovarian
[40] = test system: HS 578T breast
[41] = test system: CCRF-CEM leukemia
[42] = test system: NCI-H522 lung
[43] = test system: TK-10 renal
[44] = test system: MDA-MB-435
[45] = test system: SK-MEL-2 melanoma
[46] = test system: IGROV1 ovarian
[47] = test system: U251 CNS
[48] = test system: SK-OV-3 ovarian
[49] = test system: RXF 393 renal
[50] = test system: SN12C renal
[51] = test system: COLO 205 colon
[52] = test system: A498 renal
[53] = test system: DU-145 prostate
[54] = test system: MALME-3M melanoma
[55] = test system: MDA-MB-231 breast
[56] = test system: KM12 colon

c1c2c(cc3c1OCO3)-c1ncc3cc4c(cc3c1C2)OCO4
GI50 [1]: < 0.0154 µM
TGI [1]: 2.14 µM
GI50 [2]: 0.136 µM
TGI [2]: > 100 µM
GI50 [3]: < 0.01 µM
GI50 [4]: 0.111 µM
TGI [4]: 10.7 µM
GI50 [5]: < 0.01 µM
TGI [5]: > 100 µM
GI50 [6]: 0.0337 µM
TGI [6]: 6.33 µM
GI50 [7]: 33.4 µM
TGI [7]: > 80.5 µM
GI50 [8]: > 100 µM
TGI [8]: > 100 µM
GI50 [9]: 0.0508 µM
TGI [9]: 52.4 µM
GI50 [10]: < 0.01 µM
TGI [10]: 94.1 µM
GI50 [11]: 0.598 µM
TGI [11]: 5.25 µM
GI50 [12]: 44.7 µM
TGI [12]: > 100 µM
GI50 [13]: < 0.01 µM
TGI [13]: 24.8 µM
GI50 [14]: 0.0713 µM
TGI [14]: > 100 µM
GI50 [15]: 0.112 µM
TGI [15]: 7.79 µM
TGI [16]: > 32.4 µM
GI50 [17]: 8.8 µM
TGI [17]: > 100 µM
TGI [18]: 44.2 µM
TGI [19]: 43.6 µM
GI50 [20]: 0.112 µM
TGI [20]: 27.5 µM
GI50 [21]: 0.0147 µM
TGI [21]: 0.152 µM
GI50 [22]: 0.216 µM
TGI [22]: 0.479 µM
GI50 [23]: < 0.0267 µM
TGI [23]: 9.16 µM
GI50 [24]: 28.6 µM
TGI [24]: > 100 µM
GI50 [25]: 19 µM
TGI [25]: > 100 µM
GI50 [26]: 0.0101 µM
TGI [26]: > 64.9 µM
GI50 [27]: < 0.0305 µM
TGI [27]: > 61.2 µM
GI50 [28]: < 0.01 µM
TGI [28]: > 100 µM
TGI [29]: > 34 µM
GI50 [30]: 0.211 µM
TGI [30]: > 100 µM
GI50 [31]: 0.108 µM
TGI [31]: > 76.9 µM
GI50 [32]: < 0.0377 µM
TGI [32]: 7.44 µM
GI50 [33]: 0.108 µM
TGI [33]: > 47.1 µM
GI50 [34]: < 0.01 µM
TGI [34]: 41.8 µM
GI50 [35]: 2.49 µM
TGI [35]: > 100 µM
GI50 [36]: < 0.0229 µM
TGI [36]: > 24.7 µM
GI50 [37]: 0.581 µM
TGI [37]: > 100 µM
GI50 [38]: 0.702 µM
TGI [38]: > 77 µM
GI50 [39]: 0.18 µM
TGI [39]: 0.356 µM
TGI [40]: > 94.8 µM
GI50 [41]: 17.6 µM
TGI [41]: > 100 µM
TGI [42]: 72.2 µM
GI50 [43]: 0.143 µM
TGI [43]: 3.87 µM
GI50 [44]: 54 µM
TGI [44]: > 100 µM
GI50 [45]: > 8.58 µM
TGI [45]: > 87.1 µM
TGI [46]: > 100 µM
GI50 [47]: < 0.0369 µM
TGI [47]: 26.9 µM
GI50 [48]: < 0.01 µM
TGI [48]: 26.8 µM
GI50 [49]: 0.797 µM
TGI [49]: 43.5 µM
GI50 [50]: 0.0414 µM
TGI [50]: > 100 µM
GI50 [51]: < 0.0354 µM

CC1(C)C2CC(=O)C1(C)C(OCc1ccccc1)C2Br (stereo not drawn)
TGI [2]: 47 µM and > 100 µM
TGI [3]: 52.8 µM and 66.1 µM
GI50 [4]: 22.7 µM and 95.7 µM
TGI [4]: 56.8 µM and > 100 µM
GI50 [5]: 23.4 µM and 54.8 µM
TGI [5]: 57.9 µM and > 100 µM
GI50 [6]: 38.5 µM and 93.9 µM
TGI [6]: > 100 µM
TGI [8]: 77.9 µM and > 100 µM
TGI [9]: 42.1 µM and > 100 µM
GI50 [11]: 25.9 µM and > 100 µM
TGI [11]: 68.4 µM and > 100 µM
GI50 [12]: 32.2 µM and > 100 µM
TGI [12]: > 100 µM
TGI [13]: 31.1 µM and > 100 µM
TGI [14]: 50.2 µM and 62.1 µM
TGI [15]: > 100 µM
GI50 [16]: 27.7 µM and 98.6 µM
TGI [16]: 69.3 µM and > 100 µM
GI50 [17]: 23.2 µM and > 100 µM
TGI [17]: 56.1 µM and > 100 µM
GI50 [18]: 46.5 µM and > 100 µM
TGI [18]: > 100 µM
GI50 [19]: 47.2 µM and > 100 µM
TGI [19]: > 100 µM
GI50 [20]: 16.3 µM and 54.3 µM
TGI [20]: 33.9 µM and > 100 µM
TGI [21]: 51.2 µM and 49.9 µM
TGI [22]: 29.3 µM and > 100 µM
GI50 [52]: 24.8 µM and > 100 µM
TGI [52]: 62.2 µM and > 100 µM
TGI [23]: > 100 µM
TGI [25]: > 100 µM
TGI [26]: > 100 µM
TGI [27]: 39.8 µM and > 100 µM
TGI [28]: 32.2 µM and 71.3 µM
TGI [29]: 70.9 µM and > 100 µM
GI50 [30]: 26.6 µM and 54.3 µM
TGI [30]: 67.4 µM and > 100 µM
GI50 [53]: 29.7 µM and 86.8 µM
TGI [53]: > 100 µM
TGI [32]: > 100 µM
GI50 [33]: 20.2 µM and 48.5 µM
TGI [33]: 43.5 µM and > 100 µM
GI50 [34]: 15.1 µM and > 100 µM
TGI [34]: > 100 µM
GI50 [35]: 29.5 µM and 62 µM
TGI [35]: 75.1 µM and > 100 µM
TGI [36]: 76.3 µM and > 100 µM
TGI [37]: 47.8 µM and > 100 µM
TGI [38]: > 100 µM
GI50 [39]: 19.3 µM and 53.4 µM
TGI [39]: 37.1 µM and > 100 µM
GI50 [40]: 13.4 µM
TGI [40]: 68.2 µM and 58.8 µM
TGI [41]: 49.1 µM and 56.1 µM
TGI [43]: > 100 µM
TGI [44]: > 100 µM and 84.7 µM
GI50 [45]: 13.1 µM and > 100 µM
TGI [45]: 25.8 µM and > 100 µM
TGI [46]: > 100 µM
GI50 [47]: 22.4 µM and 51.7 µM
TGI [47]: 44.6 µM and > 100 µM
GI50 [48]: 41.5 µM and > 100 µM
TGI [48]: > 100 µM
GI50 [54]: 19.1 µM and 48.6 µM
TGI [54]: 36.9 µM and > 100 µM
GI50 [55]: 18.5 µM and > 100 µM
TGI [55]: 42.9 µM and > 100 µM
GI50 [49]: 20.6 µM and 82.7 µM
TGI [49]: 46.8 µM and > 100 µM
GI50 [50]: 24.2 µM and 82.1 µM
TGI [50]: 52.9 µM and > 100 µM
GI50 [56]: 31.4 µM and 63 µM
TGI [56]: > 100 µM
